Source: US5334603A, “Composition and use of 3-phenyl-5-thiocyano-methylthio-1,3,4-thiadiazole-2(3h)thione” (The Dow Chemical Company, priority 1993, dated 1994)
Values after ≈ are worked out from the molar mass of the structure shown.

Tests used:
Assay type in all cases: cell-based
Bacillus subtilis (Bs) = assay: Minimum inhibitory concentration (MIC), nutrient agar; details: 48 hours
Description: (§1) The minimum inhibitory concentration (MIC) for the compound is determined for 9 bacteria, using nutrient agar; and 7 yeast and fungi, using malt yeast agar. A one percent solution of the test compound is prepared in a mixture of acetone and water. Nutrient agar is prepared at pH 6.8, representing a neutral medium, and at pH 8.2, representing an alkaline medium. The nutrient agars are prepared by adding 23 g of nutrient agar to one-liter of deionized water. In addition, the alkaline medium is prepared by adjusting a 0.04M solution of N-[tris-(hydroxymethyl)methyl]-glycine buffered deionized water with concentrated sodium hydroxide to a pH of […]. Malt yeast agar is prepared by adding 3 g yeast extract and 45 g malt agar per liter of deionized water. The specific agar is dispensed in 30 ml aliquots into 25×200 mm test tubes, capped and autoclaved for 15 minutes at 115° C. The test tubes containing the agar are cooled in a water bath until the temperature of the agar is 48 ° C. Then, an appropriate amount of the one percent solution of the test compound is added (except in the controls where no compound is added) to the respective test tubes so that the final concentrations are 500, 250, 100, 50, 25, 10, 5, 2.5, 1.0 and zero parts per million of the test compound in the agar, thus having a known concentration of test compound dispersed therein. The contents of the test tubes are then transferred to respective petri plates. After drying for 24 hours, the petri plates containing nutrient agar are inoculated with bacteria and those containing malt yeast agar are inoculated with yeast and fungi.
(§2) The inoculation with bacteria is accomplished by using the following procedure. Twenty-four hour-cultures of each of the bacteria are prepared by incubating the respective bacteria in tubes containing nutrient broth for 24 hours at 30° C. in a shaker. Dilutions of each of the 24 hour-cultures are made so that nine separate suspensions (one for each of the nine test bacteria) are made, each containing 10^8 colony forming units (CFU) per ml of suspension of a particular bacteria. Aliquots of 0.3 ml of each of the bacterial suspensions are used to fill the individual wells of Steer's Replicator. For each microbial suspension, 0.3 ml was used to fill three wells (i.e., three wells of 0.3 ml each) so that for the nine different bacteria, 27 wells are filled. The Steer's Replicator is then used to inoculate both the neutral and alkaline pH nutrient agar petri plates.
(§3) The inoculated petri plates are incubated at 30° C. for 48 hours and then read to determine if the test compound which is incorporated into the agar prevented growth of the respective bacteria.

[1] = tested on: Enterobacter aerogenes (Ea); assay: as above; details: Klebsiella aerogenes, ATCC13048, ATCC 13048, 30° C., 48 hours
Description: as §1, §2, §3

Escherichia coli (Ec) = assay: as above; details: 48 hours
Description: as §1, §2, §3

[2] = tested on: Klebsiella pneumoniae (Kp); assay: as above; details: 48 hours
Description: as §1, §2, §3

Proteus vulgaris (Pv) = assay: as above; details: 48 hours
Description: as §1, §2, §3

[3] = tested on: Pseudomonas aeruginosa (PRD-10); assay: as above; details: 48 hours
Description: as §1, §2, §3

[4] = tested on: Pseudomonas aeruginosa (Pa); assay: as above; details: 48 hours
Description: as §1, §2, §3

[5] = tested on: Salmonella choleraesuis (Sc); assay: as above; details: Salmonella enterica, ATCC 10708 / CHOLERAESUIS, 48 hours
Description: as §1, §2, §3

[6] = tested on: Staphylococcus aureus (Sa); assay: as above; details: 48 hours
Description: as §1, §2, §3

Aspergillus niger (An) = assay: Minimum inhibitory concentration (MIC), malt yeast agar; details: pH 5.5; ATCC 16404; 30° C.; 48 hours for yeast, 72 hours for fungi
Description: as §1
(§4) The inoculation with the yeast and fungi is accomplished as follows. Cultures of yeast and fungi are incubated for seven days on malt yeast agar at 30° C. These cultures are used to prepare suspensions by the following procedure. A suspension of each organism is prepared by adding 10 ml of sterile saline and 10 microliters of octylphenoxy polyethoxy ethanol to the agar slant of yeast or fungi. The sterile saline/octylphenoxy polyethoxy ethanol solution is then agitated with a sterile swab to suspend the microorganism grown on the slant. Each resulting suspension is diluted into sterile saline (1 part suspension: 9 parts sterile saline). Aliquots of these dilutions are placed in individual wells of Steer's Replicator and petri plates inoculated as previously described. The petri plates are incubated at 30° C. and read after 48 hours for yeast and 72 hours for fungi.

[7] = tested on: Aureobasidium pullulan (Ap); assay: as above; details: pH 5.5; ATCC 16622; 30° C.; 48 hours for yeast, 72 hours for fungi
Description: as §1, §4

Candida Albicans (Ca) = assay: as above; details: pH 5.5; ATCC 10231; 30° C.; 48 hours for yeast, 72 hours for fungi
Description: as §1, §4

Fusarium oxysporum (Fo) = assay: as above; details: pH 5.5; ATCC 48112; 30° C.; 48 hours for yeast, 72 hours for fungi
Description: as §1, §4

[8] = tested on: Penicillium chrysogenum (Pc); assay: as above; details: pH 5.5; ATCC 9480; 30° C.; 48 hours for yeast, 72 hours for fungi
Description: as §1, §4

[9] = tested on: Saccharomyces cerevisiae (Sc); assay: as above; details: ATCC4105, pH 5.5, ATCC 4105, 30° C., 48 hours for yeast, 72 hours for fungi
Description: as §1, §4

Trichoderma viride (Tv) = assay: as above; details: pH 5.5; ATCC 8678; 30° C.; 48 hours for yeast, 72 hours for fungi
Description: as §1, §4

N#CSCSc1nn(-c2ccccc2)c(=S)s1 [INVENTION, 3-phenyl-5-thiocyanomethylthio-1,3,4-thiadiazole-2(3H)thione]
MIC (Bacillus subtilis (Bs); ATCC8473, pH 6.8, ATCC 8473, 30° C.): 100 µg/mL (≈ 336 µM) | MIC (Bacillus subtilis (Bs); ATCC8473, pH 8.2, ATCC 8473, 30° C.): < 10 µg/mL | MIC ([1]; pH 6.8): 100 µg/mL (≈ 336 µM) | MIC ([1]; pH 8.2): > 500 µg/mL | MIC (Escherichia coli (Ec); ATCC11229, pH 6.8, ATCC 11229, 30° C.): 100 µg/mL (≈ 336 µM) | MIC (Escherichia coli (Ec); ATCC11229, pH 8.2, ATCC 11229, 30° C.): 500 µg/mL (≈ 1680 µM) | MIC ([2]; ATCC8308, pH 6.8, ATCC 8308, 30° C.): 100 µg/mL (≈ 336 µM) | MIC ([2]; ATCC8308, pH 8.2, ATCC 8308, 30° C.): 250 µg/mL (≈ 840 µM) | MIC (Proteus vulgaris (Pv); ATCC881, pH 6.8, ATCC 881, 30° C.): 100 µg/mL (≈ 336 µM) | MIC (Proteus vulgaris (Pv); ATCC881, pH 8.2, ATCC 881, 30° C.): 250 µg/mL (≈ 840 µM) | MIC ([3]; ATCC15442, pH 6.8, ATCC 15442, 30° C.): 50 µg/mL (≈ 168 µM) | MIC ([3]; ATCC15442, pH 8.2, ATCC 15442, 30° C.): 100 µg/mL (≈ 336 µM) | MIC ([4]; ATCC10145, pH 6.8, ATCC 10145, 30° C.): 50 µg/mL (≈ 168 µM) | MIC ([4]; ATCC10145, pH 8.2, ATCC 10145, 30° C.): 50 µg/mL (≈ 168 µM) | MIC ([5]; pH 6.8, 30° C.): 100 µg/mL (≈ 336 µM) | MIC ([5]; pH 8.2, 30° C.): 500 µg/mL (≈ 1680 µM) | MIC ([6]; ATCC6538, pH 6.8, ATCC 6538, 30° C.): 100 µg/mL (≈ 336 µM) | MIC ([6]; ATCC6538, pH 8.2, ATCC 6538, 30° C.): 250 µg/mL (≈ 840 µM) | MIC (Aspergillus niger (An)): 5 µg/mL (≈ 16.8 µM) | MIC [7]: 2.5 µg/mL (≈ 8.4 µM) | MIC (Candida Albicans (Ca)): 25 µg/mL (≈ 84 µM) | MIC (Fusarium oxysporum (Fo)): 10 µg/mL (≈ 33.6 µM) | MIC [8]: 2.5 µg/mL (≈ 8.4 µM) | MIC [9]: 5 µg/mL (≈ 16.8 µM) | MIC (Trichoderma viride (Tv)): 25 µg/mL (≈ 84 µM)
